Counter-ions that a name gives are not always drawn.
What was measured:
Abl (Q252H) = Abl (Q252H) (Homo sapiens (Human), UniProt P00519, Q252H); assay type: biochemical; settings: read-out: % Inhibition @ 0.1 μM, Abl (Q252H)
Abl (T315I) = Abl (T315I) (Homo sapiens (Human), UniProt P00519, T315I); assay type: biochemical; settings: read-out: % Inhibition @ 0.1 μM, Abl (T315I)
Abl (M351T) = Abl (M351T) (Homo sapiens (Human), UniProt P00519, M351T); assay type: biochemical; settings: read-out: % Inhibition @ 0.1 μM, Abl (M351T)
Itk = Itk (Homo sapiens (Human), UniProt Q08881); assay type: biochemical; settings: read-out: % Inhibition @ 0.1 μM, Itk
FGFR2 = FGFR2 (Homo sapiens (Human), UniProt P21802); assay type: biochemical; settings: read-out: % Inhibition @ 0.1 μM, FGFR2
Arg = Arg (Homo sapiens (Human), UniProt P42684); assay type: biochemical; settings: read-out: % Inhibition @ 0.1 μM, Arg
Abl (H396P) = Abl (H396P) (Homo sapiens (Human), UniProt P00519, H396P); assay type: biochemical; settings: read-out: % Inhibition @ 0.1 μM, Abl (H396P)
EphA1 = EphA1 (Homo sapiens (Human), UniProt P21709); assay type: biochemical; settings: read-out: % Inhibition @ 0.1 μM, EphA1
ARK5 = ARK5 (Homo sapiens (Human), UniProt O60285); assay type: biochemical; settings: read-out: % Inhibition @ 0.1 μM, ARK5
Bmx = Bmx (Homo sapiens (Human), UniProt P51813); assay type: biochemical; settings: read-out: % Inhibition @ 0.1 μM, Bmx
Tie2 (Y897S) = Tie2 (Y897S) (Homo sapiens (Human), UniProt Q02763, Y897S); assay type: biochemical; settings: read-out: % Inhibition @ 0.1 μM, Tie2 (Y897S)
Aurora A [1] = molecular target: T1, Aurora A (Homo sapiens (Human), UniProt O14965); assay type: biochemical; settings: read-out: % Inhibition @ 0.1 μM, Aurora-A
FGFR1 (V561M) = FGFR1 (V561M) (Homo sapiens (Human), UniProt P11362, V561M); assay type: biochemical; settings: read-out: % Inhibition @ 0.1 μM, FGFR1 (V561M)
Ros = Ros (Homo sapiens (Human), UniProt P08922); assay type: biochemical; settings: read-out: % Inhibition @ 0.1 μM, Ros
IRAK1 = IRAK1 (Homo sapiens (Human), UniProt P51617); assay type: biochemical; settings: read-out: % Inhibition @ 0.1 μM, IRAK1
Aurora B [2] = molecular target: T2, Aurora B (Homo sapiens (Human), UniProt Q96GD4); settings: read-out: % Inhibition @ 0.1 μM, Aurora-B
Arg (m) = Arg (m) (Mus musculus (Mouse), UniProt Q4JIM5); assay type: biochemical; settings: read-out: % Inhibition @ 0.1 μM, Arg (m)
TRKA = TRKA (Homo sapiens (Human), UniProt P04629); assay type: biochemical; settings: read-out: % Inhibition @ 0.1 μM, TrkA
Abl (m) = Abl (m) (Mus musculus (Mouse), UniProt P00520); assay type: biochemical; settings: read-out: % Inhibition @ 0.1 μM, Abl (m)
MuSK = MuSK (Homo sapiens (Human), UniProt O15146); assay type: biochemical; settings: read-out: % Inhibition @ 0.1 μM, MuSK
Lck = Lck (Homo sapiens (Human), UniProt P06239); assay type: biochemical; settings: read-out: % Inhibition @ 0.1 μM, Lck
FGFR2 (N549H) = FGFR2 (N549H) (Homo sapiens (Human), UniProt P21802, N549H); assay type: biochemical; settings: read-out: % Inhibition @ 0.1 μM, FGFR2 (N549H)
Tie2 = Tie2 (Homo sapiens (Human), UniProt Q02763); assay type: biochemical; settings: read-out: % Inhibition @ 0.1 μM, Tie2
GCK = GCK (Homo sapiens (Human), UniProt Q12851); assay type: biochemical; settings: read-out: % Inhibition @ 0.1 μM, GCK
FLT3 [3] = molecular target: T3, FLT3 (Homo sapiens (Human), UniProt P36888); settings: read-out: % Inhibition @ 0.1 μM, Flt3
Abl = Abl (Homo sapiens (Human), UniProt P00519); assay type: biochemical; settings: read-out: % Inhibition @ 0.1 μM, Abl
Ret (V804L) = Ret (V804L) (Homo sapiens (Human), UniProt P07949, V804L); assay type: biochemical; settings: read-out: % Inhibition @ 0.1 μM, Ret (V804L)
ALK = ALK (Homo sapiens (Human), UniProt Q9UM73); assay type: biochemical; settings: read-out: % Inhibition @ 0.1 μM, ALK
Lck activated = Lck activated (Homo sapiens (Human), UniProt P06239); assay type: biochemical; settings: read-out: % Inhibition @ 0.1 μM, Lck activated
Abl (Y253F) = Abl (Y253F) (Homo sapiens (Human), UniProt P00519, Y253F); assay type: biochemical; settings: read-out: % Inhibition @ 0.1 μM, Abl (Y253F)
FGFR3 = FGFR3 (Homo sapiens (Human), UniProt P22607); assay type: biochemical; settings: read-out: % Inhibition @ 0.1 μM, FGFR3
Tie2 (R849W) = Tie2 (R849W) (Homo sapiens (Human), UniProt Q02763, R849W); assay type: biochemical; settings: read-out: % Inhibition @ 0.1 μM, Tie2 (R849W)
EphB1 = EphB1 (Homo sapiens (Human), UniProt P54762); assay type: biochemical; settings: read-out: % Inhibition @ 0.1 μM, EphB1
Ron = Ron (Homo sapiens (Human), UniProt Q04912); assay type: biochemical; settings: read-out: % Inhibition @ 0.1 μM, Ron
FGFR1 = FGFR1 (Homo sapiens (Human), UniProt P11362); assay type: biochemical; settings: read-out: % Inhibition @ 0.1 μM, FGFR1
Aurora A [4] = molecular target: T1, Aurora A; assay: Aurora A inhibition assay (Z-Lyte); assay type: biochemical
FLT3 [5] = molecular target: T3, FLT3; assay: FLT3 inhibition assay (Z-Lyte); assay type: biochemical; settings: read-out: Flt3 IC50 Ranges
human PLK4 = human PLK4 (Homo sapiens (Human), UniProt O00444); assay: PLK4 inhibition assay (indirect ELISA); assay type: biochemical; settings: read-out: PLK4 IC50 Ranges
Aurora B [6] = molecular target: T2, Aurora B; assay: Aurora B inhibition assay (Z-Lyte); assay type: biochemical; settings: read-out: Aurora B IC50 Ranges

T1 sequence (O14965 whole entry): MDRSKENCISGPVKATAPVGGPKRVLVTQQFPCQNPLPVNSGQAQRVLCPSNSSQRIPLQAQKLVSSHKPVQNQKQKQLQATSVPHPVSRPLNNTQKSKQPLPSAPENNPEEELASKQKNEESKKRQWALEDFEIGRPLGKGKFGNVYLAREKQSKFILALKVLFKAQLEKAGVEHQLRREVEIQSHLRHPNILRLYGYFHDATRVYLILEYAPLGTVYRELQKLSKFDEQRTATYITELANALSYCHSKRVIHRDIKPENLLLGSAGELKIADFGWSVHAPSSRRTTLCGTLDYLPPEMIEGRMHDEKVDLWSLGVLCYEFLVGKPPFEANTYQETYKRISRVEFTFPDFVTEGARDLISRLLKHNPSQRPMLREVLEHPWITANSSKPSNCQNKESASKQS
T2 sequence (Q96GD4 whole entry): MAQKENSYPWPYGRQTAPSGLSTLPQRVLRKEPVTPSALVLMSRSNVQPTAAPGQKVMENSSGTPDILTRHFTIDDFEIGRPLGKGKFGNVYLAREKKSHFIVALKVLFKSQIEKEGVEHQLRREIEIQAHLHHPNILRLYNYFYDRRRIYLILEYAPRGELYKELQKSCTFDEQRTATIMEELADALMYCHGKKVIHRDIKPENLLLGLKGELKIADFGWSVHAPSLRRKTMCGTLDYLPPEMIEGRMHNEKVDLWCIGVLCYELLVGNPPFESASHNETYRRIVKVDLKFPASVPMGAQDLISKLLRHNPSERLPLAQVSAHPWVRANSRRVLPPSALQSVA
T3 sequence (P36888 27-993): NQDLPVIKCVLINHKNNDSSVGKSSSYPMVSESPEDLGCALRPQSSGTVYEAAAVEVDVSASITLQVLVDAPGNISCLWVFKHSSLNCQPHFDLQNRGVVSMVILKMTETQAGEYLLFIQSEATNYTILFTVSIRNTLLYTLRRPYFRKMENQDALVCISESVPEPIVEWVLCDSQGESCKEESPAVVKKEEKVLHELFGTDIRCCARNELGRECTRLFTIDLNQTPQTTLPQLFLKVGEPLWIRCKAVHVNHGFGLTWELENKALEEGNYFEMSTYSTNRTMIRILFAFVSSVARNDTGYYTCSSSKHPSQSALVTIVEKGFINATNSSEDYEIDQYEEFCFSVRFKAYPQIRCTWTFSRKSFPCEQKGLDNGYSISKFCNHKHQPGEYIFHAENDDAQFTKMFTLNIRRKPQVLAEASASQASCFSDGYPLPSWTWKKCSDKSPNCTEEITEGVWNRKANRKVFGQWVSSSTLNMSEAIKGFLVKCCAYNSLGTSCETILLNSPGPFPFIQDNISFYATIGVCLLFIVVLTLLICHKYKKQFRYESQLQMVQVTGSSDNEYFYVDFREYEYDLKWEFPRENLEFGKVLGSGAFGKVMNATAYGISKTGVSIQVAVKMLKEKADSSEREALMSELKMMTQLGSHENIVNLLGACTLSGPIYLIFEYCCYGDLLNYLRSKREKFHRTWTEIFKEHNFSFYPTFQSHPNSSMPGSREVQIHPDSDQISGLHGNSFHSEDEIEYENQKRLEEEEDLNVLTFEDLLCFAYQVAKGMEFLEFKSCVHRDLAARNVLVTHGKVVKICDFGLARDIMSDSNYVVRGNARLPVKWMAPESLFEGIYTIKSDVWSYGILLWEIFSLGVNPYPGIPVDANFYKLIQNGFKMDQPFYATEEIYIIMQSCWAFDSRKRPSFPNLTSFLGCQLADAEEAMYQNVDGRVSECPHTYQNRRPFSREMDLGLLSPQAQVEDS
Ros, sequence (P08922 28-2347): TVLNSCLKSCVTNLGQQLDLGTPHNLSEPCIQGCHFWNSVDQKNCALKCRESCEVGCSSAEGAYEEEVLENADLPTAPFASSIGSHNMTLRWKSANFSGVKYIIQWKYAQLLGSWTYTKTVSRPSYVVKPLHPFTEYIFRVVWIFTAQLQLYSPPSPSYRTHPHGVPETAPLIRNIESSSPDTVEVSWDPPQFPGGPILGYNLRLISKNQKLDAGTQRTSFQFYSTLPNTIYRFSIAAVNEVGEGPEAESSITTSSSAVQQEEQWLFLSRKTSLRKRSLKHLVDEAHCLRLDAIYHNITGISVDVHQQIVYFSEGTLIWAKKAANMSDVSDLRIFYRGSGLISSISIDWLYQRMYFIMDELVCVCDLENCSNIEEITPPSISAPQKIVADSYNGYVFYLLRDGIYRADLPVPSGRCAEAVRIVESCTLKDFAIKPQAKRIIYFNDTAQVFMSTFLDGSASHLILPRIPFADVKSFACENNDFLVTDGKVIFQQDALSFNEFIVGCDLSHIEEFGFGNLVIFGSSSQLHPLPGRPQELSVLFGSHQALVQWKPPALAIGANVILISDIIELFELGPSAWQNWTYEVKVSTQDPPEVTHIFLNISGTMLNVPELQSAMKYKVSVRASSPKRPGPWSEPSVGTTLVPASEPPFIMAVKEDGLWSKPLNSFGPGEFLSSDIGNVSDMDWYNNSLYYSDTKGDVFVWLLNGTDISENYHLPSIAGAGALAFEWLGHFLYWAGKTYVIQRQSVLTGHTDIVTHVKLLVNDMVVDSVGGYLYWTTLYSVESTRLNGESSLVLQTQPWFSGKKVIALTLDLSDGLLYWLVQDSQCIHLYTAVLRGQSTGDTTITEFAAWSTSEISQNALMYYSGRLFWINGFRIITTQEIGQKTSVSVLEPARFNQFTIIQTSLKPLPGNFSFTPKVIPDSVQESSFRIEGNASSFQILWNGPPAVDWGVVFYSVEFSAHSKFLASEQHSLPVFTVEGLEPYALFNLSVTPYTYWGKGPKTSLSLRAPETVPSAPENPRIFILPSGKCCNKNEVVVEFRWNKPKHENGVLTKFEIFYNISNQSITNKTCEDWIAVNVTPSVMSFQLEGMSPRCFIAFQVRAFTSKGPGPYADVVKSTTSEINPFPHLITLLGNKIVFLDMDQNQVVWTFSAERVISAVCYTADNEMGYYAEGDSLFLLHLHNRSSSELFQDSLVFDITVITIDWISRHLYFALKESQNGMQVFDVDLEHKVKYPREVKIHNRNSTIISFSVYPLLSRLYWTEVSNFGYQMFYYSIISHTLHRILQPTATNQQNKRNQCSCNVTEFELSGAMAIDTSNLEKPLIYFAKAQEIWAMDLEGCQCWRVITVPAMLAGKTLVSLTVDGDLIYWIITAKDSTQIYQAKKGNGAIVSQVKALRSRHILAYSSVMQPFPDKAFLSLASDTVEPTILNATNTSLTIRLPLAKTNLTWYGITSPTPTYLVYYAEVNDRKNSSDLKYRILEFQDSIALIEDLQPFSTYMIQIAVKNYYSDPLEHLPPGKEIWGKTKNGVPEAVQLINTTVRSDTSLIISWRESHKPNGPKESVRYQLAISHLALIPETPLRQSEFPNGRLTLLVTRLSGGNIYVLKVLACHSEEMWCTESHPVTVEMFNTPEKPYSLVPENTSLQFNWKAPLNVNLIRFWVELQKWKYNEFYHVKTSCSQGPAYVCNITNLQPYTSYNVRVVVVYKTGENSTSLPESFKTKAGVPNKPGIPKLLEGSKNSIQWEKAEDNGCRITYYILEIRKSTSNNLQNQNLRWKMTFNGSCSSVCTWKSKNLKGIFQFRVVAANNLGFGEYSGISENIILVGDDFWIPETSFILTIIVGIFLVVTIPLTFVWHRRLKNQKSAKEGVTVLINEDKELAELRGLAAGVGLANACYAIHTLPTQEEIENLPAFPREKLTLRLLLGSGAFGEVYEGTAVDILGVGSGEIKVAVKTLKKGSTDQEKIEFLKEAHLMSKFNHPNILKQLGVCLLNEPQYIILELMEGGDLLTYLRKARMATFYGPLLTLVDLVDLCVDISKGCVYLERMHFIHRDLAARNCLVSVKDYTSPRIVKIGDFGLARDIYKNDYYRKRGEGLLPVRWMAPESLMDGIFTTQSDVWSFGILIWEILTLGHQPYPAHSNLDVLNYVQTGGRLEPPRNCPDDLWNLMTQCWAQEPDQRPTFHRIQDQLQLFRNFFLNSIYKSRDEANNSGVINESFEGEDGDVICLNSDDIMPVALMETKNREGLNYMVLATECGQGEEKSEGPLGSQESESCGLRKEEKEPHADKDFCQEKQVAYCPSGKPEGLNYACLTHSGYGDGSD
Ret (V804L), sequence (P07949 29-1114 V804L): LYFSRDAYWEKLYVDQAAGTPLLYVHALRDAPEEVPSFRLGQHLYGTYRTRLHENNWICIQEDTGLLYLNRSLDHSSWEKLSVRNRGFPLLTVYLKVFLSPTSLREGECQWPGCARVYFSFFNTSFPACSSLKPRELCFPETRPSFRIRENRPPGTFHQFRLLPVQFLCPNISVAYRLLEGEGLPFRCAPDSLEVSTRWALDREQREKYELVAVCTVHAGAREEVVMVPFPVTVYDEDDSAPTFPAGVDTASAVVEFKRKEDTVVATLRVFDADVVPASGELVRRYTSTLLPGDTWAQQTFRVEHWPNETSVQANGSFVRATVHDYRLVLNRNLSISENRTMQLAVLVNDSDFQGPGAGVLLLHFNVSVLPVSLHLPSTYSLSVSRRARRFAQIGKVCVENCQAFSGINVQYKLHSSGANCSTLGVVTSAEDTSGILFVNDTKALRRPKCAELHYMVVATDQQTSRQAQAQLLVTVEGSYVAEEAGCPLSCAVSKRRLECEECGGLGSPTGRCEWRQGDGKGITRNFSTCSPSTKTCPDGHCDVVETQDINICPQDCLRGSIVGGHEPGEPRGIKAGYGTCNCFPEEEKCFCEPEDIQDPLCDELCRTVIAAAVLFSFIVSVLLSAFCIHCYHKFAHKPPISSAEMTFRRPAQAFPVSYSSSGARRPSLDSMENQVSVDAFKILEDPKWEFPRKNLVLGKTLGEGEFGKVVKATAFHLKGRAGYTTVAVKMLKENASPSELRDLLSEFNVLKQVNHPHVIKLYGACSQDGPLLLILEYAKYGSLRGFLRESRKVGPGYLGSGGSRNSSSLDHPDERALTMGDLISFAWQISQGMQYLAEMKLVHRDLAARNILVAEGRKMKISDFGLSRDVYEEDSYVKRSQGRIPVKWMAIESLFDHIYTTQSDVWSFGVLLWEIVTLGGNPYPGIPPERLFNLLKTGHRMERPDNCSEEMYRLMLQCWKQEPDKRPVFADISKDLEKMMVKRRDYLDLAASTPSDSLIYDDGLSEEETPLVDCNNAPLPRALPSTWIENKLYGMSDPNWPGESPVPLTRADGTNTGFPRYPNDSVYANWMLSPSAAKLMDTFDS

| SMILES | inhibition at 0.1 µM (Abl (Q252H)) | inhibition at 0.1 µM (Abl (T315I)) | inhibition at 0.1 µM (Abl (M351T)) | inhibition at 0.1 µM (Itk) | inhibition at 0.1 µM (FGFR2) | inhibition at 0.1 µM (Arg) | inhibition at 0.1 µM (Abl (H396P)) | inhibition at 0.1 µM (EphA1) | inhibition at 0.1 µM (ARK5) | inhibition at 0.1 µM (Bmx) | inhibition at 0.1 µM (Tie2 (Y897S)) | inhibition at 0.1 µM (Aurora A [1]) | inhibition at 0.1 µM (FGFR1 (V561M)) | inhibition at 0.1 µM (Ros) | inhibition at 0.1 µM (IRAK1) | inhibition at 0.1 µM (Arg (m)) | inhibition at 0.1 µM (TRKA) | inhibition at 0.1 µM (Abl (m)) | inhibition at 0.1 µM (MuSK) | inhibition at 1 µM (Aurora A [4]) | further results |
| --- | --- | --- | --- | --- | --- | --- | --- | --- | --- | --- | --- | --- | --- | --- | --- | --- | --- | --- | --- | --- | --- |
| COc1ccc2c(c1)[C@]1(C[C@H]1c1ccc3c(-c4ccc(N5CCN(C)CC5)cc4)n[nH]c3c1)C(=O)N2 [Example A39, (1R,2S)-5′-methoxy-2-(3-(4-(4-methylpiperazin-1-yl)phenyl)-1H-indazol-6-yl)spiro[cyclopropane-1,3′-indolin]-2′-one hydrochloride] | 59% | 90% | 77% | 9% | 34% | 61% | 77% | 17% | 23% | 35% | 40% | 70% | 18% | 17% | 49% | 58% | 93% | 82% | 72% | – | inhibition at 0.1 µM (Aurora B [2]): 102%; inhibition at 0.1 µM (Lck): -3%; inhibition at 0.1 µM (FGFR2 (N549H)): 38%; inhibition at 0.1 µM (Tie2): 32%; inhibition at 0.1 µM (GCK): 16%; inhibition at 0.1 µM (FLT3 [3]): 2%; inhibition at 0.1 µM (Abl): 68%; inhibition at 0.1 µM (Ret (V804L)): 24%; inhibition at 0.1 µM (ALK): 20%; inhibition at 0.1 µM (Lck activated): 62%; inhibition at 0.1 µM (Abl (Y253F)): 43%; inhibition at 0.1 µM (FGFR3): 60%; inhibition at 0.1 µM (Tie2 (R849W)): 38%; inhibition at 0.1 µM (EphB1): 15%; inhibition at 0.1 µM (Ron): 3%; inhibition at 0.1 µM (FGFR1): 10% |
| O=C1Nc2ccccc2[C@]12C[C@H]2c1ccc2c(-c3ccc(CN4CCOCC4)cc3)n[nH]c2c1 (relative stereo) [Example A154, (1R*,2S*)-2-(3-(4-(morpholinomethyl)phenyl)-1H-indazol-6-yl)spiro[cyclopropane-1,3′-indolin]-2′-one 2,2,2-trifluoroacetate] | – | – | – | – | – | – | – | – | – | – | – | – | – | – | – | – | – | – | – | > 50% | IC50 (FLT3 [5]): 100 to 1000 nM; IC50 (human PLK4): < 100 nM; IC50 (Aurora B [6]): 100 to 1000 nM |
| COc1ccc2c(c1)[C@]1(C[C@H]1c1ccc3c(/C=C/c4ccc(CN5CCOCC5)cc4)n[nH]c3c1)C(=O)N2 [Example A42, (1R,2S)-(E)-5′-methoxy-2-(3-(4-(morpholinomethyl)styryl)-1H-indazol-6-yl)spiro[cyclopropane-1,3′-indolin]-2′-one hydrochloride] | 83% | 98% | 91% | 82% | 88% | 89% | 93% | […] | 86% | 92% | 92% | 100% | 91% | 93% | 52% | 90% | 100% | 92% | 90% | > 50% | inhibition at 0.1 µM (Lck): 77%; inhibition at 0.1 µM (FGFR2 (N549H)): 87%; inhibition at 0.1 µM (Tie2): 98%; inhibition at 0.1 µM (GCK): 80%; inhibition at 0.1 µM (Abl): 77%; inhibition at 0.1 µM (Ret (V804L)): 60%; inhibition at 0.1 µM (ALK): 64%; inhibition at 0.1 µM (Lck activated): 90%; inhibition at 0.1 µM (Abl (Y253F)): 75%; inhibition at 0.1 µM (FGFR3): 90%; inhibition at 0.1 µM (Tie2 (R849W)): 83%; inhibition at 0.1 µM (Ron): 62%; inhibition at 0.1 µM (FGFR1): […] |
| COc1ccc2c(c1)[C@]1(C[C@H]1c1ccc3c(-c4cccc(C(=O)N5CCN(C)CC5)c4)n[nH]c3c1)C(=O)N2 (relative stereo) [Example A149, (1R*,2S*)-5′-methoxy-2-(3-(3-(4-methylpiperazine-1-carbonyl)phenyl)-1H-indazol-6-yl)spiro[cyclopropane-1,3′-indolin]-2′-one 2,2,2-trifluoroacetate] | – | – | – | – | – | – | – | – | – | – | – | – | – | – | – | – | – | – | – | < 50% | IC50 (FLT3 [5]): > 1000 nM; IC50 (human PLK4): < 100 nM; IC50 (Aurora B [6]): > 1000 nM |
